Experimental data: ChEMBL document CHEMBL6121016, “Design, Synthesis, and Biological Evaluation of 1,3,4-Thiadiazole Derivatives as Novel Potent Peptide Deformylase Inhibitors for Combating Drug-Resistant Gram-Positive and -Negative Bacteria” (J Med Chem, 2025)
In brackets after ≈: the same amount, converted by molar mass.

Key:
Acinetobacter baumannii [1] = assay: Antibacterial activity against Acinetobacter baumannii Bio 53272 after 16 to 18 hrs by broth microdilution method; format: functional; details: time 16-18 hrs
Escherichia coli [2] = assay: Antibacterial activity against Escherichia coli ATCC 10668 after 16 to 18 hrs by broth microdilution method; format: functional; details: time 16-18 hrs
Klebsiella pneumoniae [3] = assay: Antibacterial activity against Klebsiella pneumoniae CICC 21092 after 16 to 18 hrs by broth microdilution method; format: functional; details: time 16-18 hrs
Acinetobacter baumannii [4] = assay: Antibacterial activity against Acinetobacter baumannii Bio 24253 after 16 to 18 hrs by broth microdilution method; format: functional; details: time 16-18 hrs
[5] = Methemoglobin toxicity in human blood at 500 uM incubated for 6 hrs by MetHb content assay; format: tissue-based
Acinetobacter baumannii [6] = assay: Antibacterial activity against drug-resistant Acinetobacter baumannii Bio 53272 after 16 to 18 hrs by broth microdilution method; format: functional; details: time 16-18 hrs
Acinetobacter baumannii [7] = assay: Antibacterial activity against Acinetobacter baumannii Bio 120982 after 16 to 18 hrs by broth microdilution method; format: functional; details: time 16-18 hrs
Escherichia coli [8] = assay: Antibacterial activity against Escherichia coli ATCC 25922 after 16 to 18 hrs by broth microdilution method; format: functional; details: time 16-18 hrs
[9] = Cytotoxicity against human HEK293T cells assessed as cell viability at 3.125 to 100 uM incubated for 24 hrs by MTT assay; format: toxicity, cell-based, HEK-293T
Klebsiella pneumoniae [10] = assay: Antibacterial activity against Klebsiella pneumoniae CICC 21611 after 16 to 18 hrs by broth microdilution method; format: functional; details: time 16-18 hrs
[11] = Cytotoxicity against human HeLa cells assessed as cell viability at 3.125 to 100 uM incubated for 24 hrs by MTT assay; format: toxicity, cell-based
Staphylococcus aureus [12] = assay: Antibacterial activity against methicillin-susceptible Staphylococcus aureus ATCC 25923 after 16 to 18 hrs by broth microdilution method; format: functional; details: time 16-18 hrs
Staphylococcus aureus [13] = assay: Antibacterial activity against methicillin-susceptible Staphylococcus aureus ATCC 29213 after 16 to 18 hrs by broth microdilution method; format: functional; details: time 16-18 hrs
[14] = system: Staphylococcus epidermidis; assay: Antibacterial activity against Staphylococcus epidermidis after 16 to 18 hrs by broth microdilution method; format: functional; details: time 16-18 hrs
Staphylococcus aureus [15] = assay: Antibacterial activity against methicillin-resistant Staphylococcus aureus ATCC 43300 after 16 to 18 hrs by broth microdilution method; format: functional; details: time 16-18 hrs
Staphylococcus aureus [16] = assay: Antibacterial activity against methicillin-resistant Staphylococcus aureus Bio-090770 after 16 to 18 hrs by broth microdilution method; format: functional; details: time 16-18 hrs
Staphylococcus aureus [17] = assay: Antibacterial activity against methicillin-susceptible Staphylococcus aureus ATCC 13709 after 16 to 18 hrs by broth microdilution method; format: functional; details: time 16-18 hrs
[18] = Aqueous solubility of compound at 0.9% aqueous NaCl solution incubated for 2 hrs by UV spectrophotometry analysis; format: physicochemical
Staphylococcus aureus [19] = assay: Antibacterial activity against methicillin-resistant Staphylococcus aureus ATCC 33591 after 16 to 18 hrs by broth microdilution method; format: functional; details: time 16-18 hrs
Acinetobacter baumannii [20] = assay: Antibacterial activity against Acinetobacter baumannii Bio 69680 after 16 to 18 hrs by broth microdilution method; format: functional; details: time 16-18 hrs
Escherichia coli [21] = assay: Antibacterial activity against Escherichia coli ATCC 10663 after 16 to 18 hrs by broth microdilution method; format: functional; details: time 16-18 hrs
Acinetobacter baumannii [22] = assay: Antibacterial activity against Acinetobacter baumannii Bio 34235 after 16 to 18 hrs by broth microdilution method; format: functional; details: time 16-18 hrs
Acinetobacter baumannii [23] = assay: Antibacterial activity against Acinetobacter baumannii Bio 53250 after 16 to 18 hrs by broth microdilution method; format: functional; details: time 16-18 hrs
Klebsiella pneumoniae [24] = assay: Antibacterial activity against Klebsiella pneumoniae CICC 20093 after 16 to 18 hrs by broth microdilution method; format: functional; details: time 16-18 hrs
Escherichia coli [25] = assay: Antibacterial activity against Escherichia coli ATCC 10661 after 16 to 18 hrs by broth microdilution method; format: functional; details: time 16-18 hrs
Peptide deformylase [26] = target: T1, Peptide deformylase (Escherichia coli, UniProt Q9JN24); assay: Inhibition of Escherichia coli PDF-Ni assessed as enzyme activity incubated for 30 min by fluorescamine method
T1 sequence (Q9JN24 whole entry): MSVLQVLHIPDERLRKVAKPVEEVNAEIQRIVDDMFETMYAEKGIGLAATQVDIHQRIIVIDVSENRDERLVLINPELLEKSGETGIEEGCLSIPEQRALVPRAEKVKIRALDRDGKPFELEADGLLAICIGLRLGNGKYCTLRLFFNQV

Peptide deformylase [27] = target: T2, Peptide deformylase (Staphylococcus aureus, UniProt P68826); assay: Inhibition of Staphylococcus aureus PDF-Ni assessed as enzyme activity incubated for 30 min by fluorescamine method
T2 sequence (P68826 whole entry): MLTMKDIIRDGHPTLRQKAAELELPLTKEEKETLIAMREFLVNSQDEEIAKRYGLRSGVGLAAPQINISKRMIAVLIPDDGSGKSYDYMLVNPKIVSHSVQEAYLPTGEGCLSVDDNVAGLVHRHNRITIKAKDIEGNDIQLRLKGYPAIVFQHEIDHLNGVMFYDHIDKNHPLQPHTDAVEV

[28] = Acute toxicity in KM mouse infected with drug-resistant Acinetobacter baumannii assessed as survival rate at 40 mg/kg; format: organism-based; details: in vivo
[29] = Acute toxicity in KM mouse infected with drug-resistant Acinetobacter baumannii assessed as pathological changes in kidney at 40 mg/kg by HE staining based analysis; format: organism-based; details: in vivo
[30] = Acute toxicity in KM mouse infected with drug-resistant Acinetobacter baumannii assessed as pathological changes in lungs at 40 mg/kg by HE staining based analysis; format: organism-based; details: in vivo
[31] = Acute toxicity in KM mouse infected with drug-resistant Acinetobacter baumannii assessed as pathological changes in liver at 40 mg/kg by HE staining based analysis; format: organism-based; details: in vivo
Staphylococcus aureus [32] = assay: Bactericidal activity against methicillin-resistant Staphylococcus aureus assessed as bacteriostatic efficiency at 0.5 microg/mL incubated for 24 hrs by time killing analysis relative to control; format: functional; details: dose 0.5 µg/ml

| SMILES | MIC (Acinetobacter baumannii [1]) | MIC (Escherichia coli [2]) | MIC (Klebsiella pneumoniae [3]) | MIC (Acinetobacter baumannii [4]) | MIC (Acinetobacter baumannii [6]) | MIC (Acinetobacter baumannii [7]) | MIC (Escherichia coli [8]) | IC50 at 24 h [9] | MIC (Klebsiella pneumoniae [10]) | IC50 at 24 h [11] | MIC (Staphylococcus aureus [12]) | MIC (Staphylococcus aureus [13]) | MIC [14] | MIC (Staphylococcus aureus [15]) | MIC (Staphylococcus aureus [16]) | MIC (Staphylococcus aureus [17]) | solubility at 2 h [18] | MIC (Staphylococcus aureus [19]) | MIC (Acinetobacter baumannii [20]) | MIC (Acinetobacter baumannii [22]) | also measured |
| --- | --- | --- | --- | --- | --- | --- | --- | --- | --- | --- | --- | --- | --- | --- | --- | --- | --- | --- | --- | --- | --- |
| CCCC[C@H](CN(O)C=O)C(=O)N1CCC[C@H]1C(=O)Nc1ccc(F)c[n+]1[O-] | 32 µg/mL (≈ 80.7 µM) | 32 µg/mL (≈ 80.7 µM) | 64 µg/mL (≈ 161 µM) | 32 µg/mL (≈ 80.7 µM) | > 16 µg/mL | 16 µg/mL (≈ 40.4 µM) | 32 µg/mL (≈ 80.7 µM) | > 100 µM | 64 µg/mL (≈ 161 µM) | > 100 µM | 0.5 µg/mL (≈ 1.26 µM) | 0.25 µg/mL (≈ 0.631 µM) | 0.25 µg/mL (≈ 0.631 µM) | 0.25 µg/mL (≈ 0.631 µM) | 0.5 µg/mL (≈ 1.26 µM) | 0.25 µg/mL (≈ 0.631 µM) | 1650 µg/mL (≈ 4160 µM) | 0.125 µg/mL (≈ 0.315 µM) | 16 µg/mL (≈ 40.4 µM) | 32 µg/mL (≈ 80.7 µM) | Activity [5]: Toxic; MIC (Escherichia coli [21]): 16 µg/mL (≈ 40.4 µM); MIC (Acinetobacter baumannii [23]): 32 µg/mL (≈ 80.7 µM); MIC (Klebsiella pneumoniae [24]): 64 µg/mL (≈ 161 µM); MIC (Escherichia coli [25]): 8 µg/mL (≈ 20.2 µM) |
| CCCC[C@H](CN(O)C=O)C(=O)N1CCC[C@H]1c1nnc(-c2ccc(C)s2)s1 | – | – | – | – | 16 µg/mL (≈ 37.9 µM) | – | 64 µg/mL (≈ 151 µM) | – | 32 µg/mL (≈ 75.7 µM) | – | 4 µg/mL (≈ 9.47 µM) | 2 µg/mL (≈ 4.73 µM) | 1 µg/mL (≈ 2.37 µM) | 0.25 µg/mL (≈ 0.592 µM) | 2 µg/mL (≈ 4.73 µM) | 2 µg/mL (≈ 4.73 µM) | – | 0.25 µg/mL (≈ 0.592 µM) | – | 32 µg/mL (≈ 75.7 µM) | IC50 (Peptide deformylase [26]): 0.0985 µM; IC50 (Peptide deformylase [27]): 0.0074 µM |
| O=C(O)c1cn(C2CC2)c2cc(N3CCNCC3)c(F)cc2c1=O [CIPROFLOXACIN] | – | – | – | – | 32 µg/mL (≈ 96.6 µM) | – | – | – | 0.03 µg/mL (≈ 0.0905 µM) | – | 4 µg/mL (≈ 12.1 µM) | 8 µg/mL (≈ 24.1 µM) | 0.06 µg/mL (≈ 0.181 µM) | 64 µg/mL (≈ 193 µM) | 0.5 µg/mL (≈ 1.51 µM) | 8 µg/mL (≈ 24.1 µM) | – | 0.25 µg/mL (≈ 0.754 µM) | – | 0.5 µg/mL (≈ 1.51 µM) | Activity [28]: Toxic; Activity [29]: Toxic; Activity [30]: Toxic; Activity [31]: Toxic |
| CCCC[C@H](CN(O)C=O)C(=O)N1CCC[C@H]1c1nnc(-c2ccc([N+](=O)[O-])cc2F)s1 | 16 µg/mL (≈ 34.4 µM) | 16 µg/mL (≈ 34.4 µM) | 32 µg/mL (≈ 68.7 µM) | 32 µg/mL (≈ 68.7 µM) | > 16 µg/mL | 16 µg/mL (≈ 34.4 µM) | > 16 µg/mL | > 100 µM | 16 µg/mL (≈ 34.4 µM) | 91.7 µM | 0.25 µg/mL (≈ 0.537 µM) | 0.5 µg/mL (≈ 1.07 µM) | 0.5 µg/mL (≈ 1.07 µM) | 0.125 µg/mL (≈ 0.269 µM) | 0.5 µg/mL (≈ 1.07 µM) | 0.5 µg/mL (≈ 1.07 µM) | 2020 µg/mL (≈ 4340 µM) | 0.125 µg/mL (≈ 0.269 µM) | 16 µg/mL (≈ 34.4 µM) | > 16 µg/mL | Activity (Staphylococcus aureus [32]): 100%; MIC (Escherichia coli [21]): 8 µg/mL (≈ 17.2 µM); MIC (Acinetobacter baumannii [23]): 16 µg/mL (≈ 34.4 µM); MIC (Klebsiella pneumoniae [24]): 16 µg/mL (≈ 34.4 µM); MIC (Escherichia coli [25]): 8 µg/mL (≈ 17.2 µM) |
| CCCC[C@H](CN(O)C=O)C(=O)N1CCC[C@H]1c1nnc(-c2ccc(-c3ccccn3)cc2)s1 | 32 µg/mL (≈ 66.7 µM) | 16 µg/mL (≈ 33.4 µM) | 32 µg/mL (≈ 66.7 µM) | 32 µg/mL (≈ 66.7 µM) | 32 µg/mL (≈ 66.7 µM) | 32 µg/mL (≈ 66.7 µM) | 64 µg/mL (≈ 133 µM) | > 100 µM | 32 µg/mL (≈ 66.7 µM) | 89 µM | 0.25 µg/mL (≈ 0.521 µM) | 0.5 µg/mL (≈ 1.04 µM) | 1 µg/mL (≈ 2.09 µM) | 0.25 µg/mL (≈ 0.521 µM) | 0.5 µg/mL (≈ 1.04 µM) | 0.5 µg/mL (≈ 1.04 µM) | 370 µg/mL (≈ 771 µM) | 0.125 µg/mL (≈ 0.261 µM) | 32 µg/mL (≈ 66.7 µM) | 32 µg/mL (≈ 66.7 µM) | IC50 (Peptide deformylase [26]): 0.124 µM; MIC (Escherichia coli [21]): 16 µg/mL (≈ 33.4 µM); MIC (Acinetobacter baumannii [23]): 32 µg/mL (≈ 66.7 µM); MIC (Klebsiella pneumoniae [24]): 16 µg/mL (≈ 33.4 µM); IC50 (Peptide deformylase [27]): 0.0043 µM; MIC (Escherichia coli [25]): 16 µg/mL (≈ 33.4 µM) |
